{"source": "patent EP4775208A1", "about": "“USE OF PRMT5 INHIBITOR IN TREATMENT OF TUMORS OR CANCERS” (Apeiron Therapeutics (Hong Kong) Ltd., priority 2023, dated 2025)", "assay_type_in_all_cases": "cell-based", "key": {"[1]": {"system": "LN18 MTAP-overexpressing cells", "assay": "Inhibition of proliferation of LN18 MTAP-overexpressing cells (CellTiter-Glo)", "details": "cell proliferation, 7 days", "from_the_text": "Test 6: Assay for Inhibitory Activity of Compounds against LN18 MTAP-Overexpressing Cell Proliferatio\nMaterials and Cells: The LN18 MTAP-overexpressing cell line was purchased from Cobioer Biosciences (China). Cell culture media, fetal bovine serum (FBS), and penicillin-streptomycin were purchased from Thermo Fisher Scientific (USA). 384-well plates were purchased from PerkinElmer (USA). The CellTiter-Glo assay kit was purchased from Promega (USA).\nCell Culture: LN18 MTAP-overexpressing cells were cultured in a medium supplemented with 10% fetal bovine serum (FBS) and 1% penicillin-streptomycin at 37°C with 5% CO2. Only cells in the logarithmic growth phase were used for experiments.\nCell Proliferation Inhibition Assay: The antiproliferative activity of the compounds against LN18 MTAP-overexpressing cells was assessed using the CellTiter-Glo assay kit. Cell suspensions were adjusted to the appropriate density and seeded into 384-well plates at a volume of 40 µL per well, then incubated overnight at 37°C with 5% CO2. Compounds (40 nL) were added to each well to achieve final concentrations ranging from 0 to 10,000 nM (starting concentration 10,000 nM, 3-fold serial dilutions, 9 dose points), with a final DMSO concentration of […]. The cell plates were incubated at 37°C with 5% CO2 for 7 days. Subsequently, 40 µL of CellTiter-Glo reagent was added to measure cell viability."}, "LN-18": {"system": "LN-18", "assay": "Mini cell panel: inhibition of proliferation of LN-18 cells", "from_the_text": "(§1) Test 9: Mini Cell Panel: Assay for Inhibitory Activity of Compounds against Proliferation of 20 Tumor Cell Lines\n(§2) Materials and Cells: Fifteen MTAP(-/-) cell lines and five MTAP wild-type cell lines were purchased from ATCC (USA). Cell culture media, fetal bovine serum (FBS), and penicillin-streptomycin were purchased from Thermo Fisher Scientific (USA). 384-well plates were purchased from PerkinElmer (USA). The CellTiter-Glo assay kit was purchased from Promega (USA). Paclitaxel was used as the control compound."}, "LU99": {"system": "LU99", "assay": "Mini cell panel: inhibition of proliferation of LU99 cells", "from_the_text": "as §1, §2"}, "NCI-H647": {"system": "NCI-H647", "assay": "Mini cell panel: inhibition of proliferation of NCI-H647 cells", "from_the_text": "as §1, §2"}, "SU-DHL-10": {"system": "SU-DHL-10", "assay": "Mini cell panel: inhibition of proliferation of SU-DHL-10 cells", "from_the_text": "as §1, §2"}, "CFPAC-1": {"system": "CFPAC-1", "assay": "Mini cell panel: inhibition of proliferation of CFPAC-1 cells", "from_the_text": "as §1, §2"}, "U87MG MTAP(-/-) cells": {"system": "U87MG MTAP(-/-) cells", "assay": "Inhibition of proliferation of U87MG MTAP(-/-) cells (CellTiter-Glo)", "details": "Homo sapiens, U-87 MG, 144 h, cell proliferation, 6 days", "how_it_was_run": "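U87MG MTAP(-/-) cells in log phase, seeded overnight, then exposed 6 days at 37 °C, 5% CO2 to compound at 10,000 nM top, 3-fold dilutions, 10 points, 0.5% DMSO final. Viability read by CellTiter-Glo luminescence.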"}, "SK-MEL-5": {"system": "SK-MEL-5", "assay": "Mini cell panel: inhibition of proliferation of SK-MEL-5 cells", "details": "Homo sapiens, MTAP (-/-)", "from_the_text": "as §1, §2"}, "[2]": {"details": "Homo sapiens, LN-18, MTAP (-/-)"}, "[3]": {"details": "Homo sapiens, Lu-99, MTAP (-/-)"}, "[4]": {"details": "Homo sapiens, NCI-H647, MTAP (-/-)"}, "[5]": {"details": "Homo sapiens, SU-DHL10, MTAP Wild type"}, "[6]": {"details": "Homo sapiens, CFPAC-1, MTAP Wild type"}}}
{"compound": "(S)-4-amino-7-fluoro-N-methyl-N-(6-(triflu oromethyl)-2,3-dihydr obenzofuran-3-yl)imi dazo[1,5-a]quinoxalin e-8-carboxamide [Example 29]", "values": [{"measurement": "IC50", "setting": "[1]", "value": 812, "unit": "nM"}, {"measurement": "IC50", "setting": "LN-18; MTAP (-/-)", "value": 5.4, "unit": "nM"}, {"measurement": "IC50", "setting": "LU99; MTAP (-/-)", "value": 37.4, "unit": "nM"}, {"measurement": "IC50", "setting": "NCI-H647; MTAP (-/-)", "value": 41.6, "unit": "nM"}, {"measurement": "IC50", "setting": "SU-DHL-10; MTAP Wild type", "value": 1590, "unit": "nM"}, {"measurement": "IC50", "setting": "CFPAC-1; MTAP Wild type", "value": 1060, "unit": "nM"}]}
{"compound": "[2H]C([2H])([2H])N(C(=O)c1ccc2nc(N)c3cncn3c2c1)[C@@H]1COc2cc(C(F)(F)F)ccc21", "note": "[Example 16, (S)-4-amino-N-(methyl-d3)-N-(6-(trifluoromethyl)-2,3-dihydrobenzofuran-3-yl)imidaz o[1,5-a]quinoxaline-8-carboxamide]", "values": [{"measurement": "IC50", "setting": "[1]; Homo sapiens, LN-18, 168 h", "value": 1200, "unit": "nM"}, {"measurement": "IC50", "setting": "U87MG MTAP(-/-) cells", "value": 70.8, "unit": "nM"}]}
{"compound": "CN(C(=O)c1cc2c(cn1)nc(N)c1cncn12)[C@@H]1COc2cc(C(F)(F)F)ccc21", "note": "[Example 4, (S)-4-amino-N-methy 1-N-(6-(trifluoromethy 1)-2,3-dihydrobenzofuran-3-yl)imidazo[1,5-a]pyrido[3,4-e]pyrazine-8-carboxamide]", "values": [{"measurement": "IC50", "setting": "[1]; Homo sapiens, LN-18, 168 h", "value": 868, "unit": "nM"}, {"measurement": "IC50", "setting": "U87MG MTAP(-/-) cells", "value": 93.1, "unit": "nM"}, {"measurement": "IC50", "setting": "LN-18; [2]", "value": 7.8, "unit": "nM"}, {"measurement": "IC50", "setting": "LU99; [3]", "value": 21.8, "unit": "nM"}, {"measurement": "IC50", "setting": "NCI-H647; [4]", "value": 16, "unit": "nM"}, {"measurement": "IC50", "setting": "SK-MEL-5", "value": "> 1000", "unit": "nM"}, {"measurement": "IC50", "setting": "SU-DHL-10; [5]", "value": 1300, "unit": "nM"}, {"measurement": "IC50", "setting": "CFPAC-1; [6]", "value": 407, "unit": "nM"}]}
{"compound": "[2H]C([2H])([2H])N(C(=O)c1cc2c(cc1F)nc(N)c1cncn12)[C@@H]1COc2cc(C(F)(F)F)ccc21", "note": "[Example 41, (S)-4-amino-7-fluoro-N-(methyl-d3)-N-(6-(trifluoromethyl)-2,3-di hydrobenzofuran-3-yl)imidazo[1,5-a]quinox aline-8-carboxamide]", "values": [{"measurement": "IC50", "setting": "[1]; Homo sapiens, LN-18, 168 h", "value": 1970, "unit": "nM"}, {"measurement": "IC50", "setting": "U87MG MTAP(-/-) cells", "value": 58.5, "unit": "nM"}]}
{"compound": "CN(C(=O)c1ccc2nc(N)c3cncn3c2c1)[C@@H]1COc2cc(C(F)(F)F)ccc21", "note": "[Example 107, (S)-4-amino-N-methy 1-N-(6-(trifluoromethy 1)-2,3-dihydrobenzofuran-3-yl)imidazo[1,5-a]quinoxaline-8-carboxamide]", "values": [{"measurement": "IC50", "setting": "[1]; Homo sapiens, LN-18, 168 h", "value": 1370, "unit": "nM"}, {"measurement": "IC50", "setting": "U87MG MTAP(-/-) cells", "value": 111, "unit": "nM"}, {"measurement": "IC50", "setting": "LN-18; [2]", "value": 9.4, "unit": "nM"}, {"measurement": "IC50", "setting": "LU99; [3]", "value": 39.6, "unit": "nM"}, {"measurement": "IC50", "setting": "NCI-H647; [4]", "value": 30, "unit": "nM"}, {"measurement": "IC50", "setting": "SK-MEL-5", "value": "> 1000", "unit": "nM"}, {"measurement": "IC50", "setting": "SU-DHL-10; [5]", "value": 1700, "unit": "nM"}, {"measurement": "IC50", "setting": "CFPAC-1; [6]", "value": 781, "unit": "nM"}]}
